From PubChem BioAssay AID1259407 (Chemical Carcinogenesis Research Information System (CCRIS), 2018)
“Also recorded” adds a separate entry of the source. Active and inactive are the calls of the source. No rule for the calls is given here.

Tested on: CCRIS mutagenicity, Ames/micronucleus/aberration tests
Assay: CCRIS mutagenicity studies

OO
mutagenic call (Test System: AMES SALMONELLA TYPHIMURIUM, Strain/Indicator: TA1535, Metabolic Activation: RAT, LIVER, S-9, AROCLOR 1254, Method: STANDARD PLATE): inactive; negative
mutagenic call (Test System: AMES SALMONELLA TYPHIMURIUM, Strain/Indicator: TA1537, Metabolic Activation: NONE, Method: STANDARD PLATE): inactive; negative
mutagenic call (Test System: AMES SALMONELLA TYPHIMURIUM, Strain/Indicator: TA1537, Metabolic Activation: RAT, LIVER, S-9, AROCLOR 1254, Method: STANDARD PLATE): inactive; negative
mutagenic call (Test System: AMES SALMONELLA TYPHIMURIUM, Strain/Indicator: TA1537, Metabolic Activation: RAT, LIVER, S-9, PHENOBARBITAL, Method: LIQUID INCUBATION): active; positive
mutagenic call (Test System: AMES SALMONELLA TYPHIMURIUM, Strain/Indicator: TA1537, Metabolic Activation: RAT, LIVER, S-9, PHENOBARBITAL, Method: STANDARD PLATE): active; positive
mutagenic call (Test System: AMES SALMONELLA TYPHIMURIUM, Strain/Indicator: TA1538, Metabolic Activation: NONE, Method: STANDARD PLATE): inactive; negative
mutagenic call (Test System: AMES SALMONELLA TYPHIMURIUM, Strain/Indicator: TA1538, Metabolic Activation: RAT, LIVER, S-9, AROCLOR 1254, Method: STANDARD PLATE): inactive; negative
mutagenic call (Test System: AMES SALMONELLA TYPHIMURIUM, Strain/Indicator: TA1975, Metabolic Activation: NONE, Method: PREINCUBATION): inactive; negative
mutagenic call (Test System: AMES SALMONELLA TYPHIMURIUM, Strain/Indicator: TA2638, Metabolic Activation: NONE, Method: STANDARD PLATE): active; positive
mutagenic call (Test System: AMES SALMONELLA TYPHIMURIUM, Strain/Indicator: TA2638A, Metabolic Activation: NONE, Method: STANDARD PLATE): active; positive
mutagenic call (Test System: AMES SALMONELLA TYPHIMURIUM, Strain/Indicator: YG3001, Metabolic Activation: NONE, Method: PREINCUBATION): inactive; negative
mutagenic call (Test System: AMES SALMONELLA TYPHIMURIUM, Strain/Indicator: YG3002, Metabolic Activation: NONE, Method: PREINCUBATION): inactive; negative
mutagenic call (Test System: AMES SALMONELLA TYPHIMURIUM, Strain/Indicator: YG3003, Metabolic Activation: NONE, Method: PREINCUBATION): active; positive
mutagenic call (Test System: Ames Salmonella typhimurium, Strain/Indicator: TA102, Metabolic Activation: None, Method: Preincubation): active; positive (decrease in mutagenicity when 0.99-15.90 mg/plate of chloroform extrac; also recorded: active; positive (dose related decrease in mutagenicity when 1.82-7.30 mg/plate of metha
mutagenic call (Test System: Ames Salmonella typhimurium, Strain/Indicator: TA102, Metabolic Activation: Rat, Liver, S-9, Aroclor 1254, Method: Preincubation): active; positive (decrease in mutagenicity when 0.99-15.90 mg/plate of chloroform extrac; also recorded: active; positive (decrease in mutagenicity when 0.46 or 0.91 mg/plate of methanol extrac
mutagenic call (Test System: CHINESE HAMSTER G10, Strain/Indicator: G10 (GPT)/6-THIOGUANINE, Metabolic Activation: NONE): inactive; negative
mutagenic call (Test System: CHINESE HAMSTER G12, Strain/Indicator: G12 (GPT)/6-THIOGUANINE, Metabolic Activation: NONE): active; positive
mutagenic call (Test System: CHINESE HAMSTER V79 CELLS, Strain/Indicator: V79 CELLS (HPRT)/6-THIOGUANINE, Metabolic Activation: NONE, Method: PREINCUBATION): inactive; negative
mutagenic call (Test System: CHINESE HAMSTER V-79, Strain/Indicator: V-79 (HPRT)/6-THIOGUANINE, Metabolic Activation: NONE): inactive; negative
mutagenic call (Test System: CHINESE HAMSTER V-79, Strain/Indicator: V-79/6-THIOGUANINE, Metabolic Activation: NONE, Method: FLASK ASSAY): inactive; negative
mutagenic call (Test System: CHINESE HAMSTER V-79, Strain/Indicator: V-79/6-THIOGUANINE, Metabolic Activation: NONE, Method: STANDARD PLATE): active; positive
mutagenic call (Test System: CHINESE HAMSTER V-79, Strain/Indicator: V-79/8-AZAGUANINE, Metabolic Activation: NONE): active; positive
mutagenic call (Test System: Chinese hamster ovary cells, Strain/Indicator: EM9 (HPRT)/6-Thioguanine, Metabolic Activation: None): active; positive
mutagenic call (Test System: E. COLI, Strain/Indicator: WP2 (PKM101), Metabolic Activation: NONE, Method: STANDARD PLATE): active; positive
mutagenic call (Test System: E. COLI, Strain/Indicator: WP2, Metabolic Activation: NONE, Method: STANDARD PLATE): inactive; negative
mutagenic call (Test System: E. COLI, Strain/Indicator: WP2, Metabolic Activation: RAT, LIVER, S-9, AROCLOR 1254, Method: STANDARD PLATE): inactive; negative
mutagenic call (Test System: E. COLI, Strain/Indicator: WP2 UVRA (PKM101), Metabolic Activation: NONE, Method: STANDARD PLATE): active; positive
mutagenic call (Test System: HCT116 COLON CANCER CELLS, Strain/Indicator: HCT116 CELLS (HPRT)/6-THIOGUANINE, Metabolic Activation: NONE, Method: PREINCUBATION): active; positive
mutagenic call (Test System: HUMAN T LYMPHOCYTES, Strain/Indicator: PRIMARY CULTURES (HPRT)/6-THIOGUANINE, Metabolic Activation: NONE, Method: PREINCUBATION): active; positive
mutagenic call (Test System: MOUSE LYMPHOMA, Strain/Indicator: L5178Y (TK+/TK-), Metabolic Activation: NONE, Method: SUSPENSION/PLATE): active; positive
mutagenic call (Test System: UDS HUMAN FIBROBLASTS, Strain/Indicator: THY INCORP (NON-S-PHASE), Metabolic Activation: NONE, Method: AUTORADIOGRAPHY): active; positive
mutagenic call (Test System: UDS HUMAN FIBROBLASTS, Strain/Indicator: THY INCORP, Metabolic Activation: NONE, Method: AUTORADIOGRAPHY): active; positive
